This is an account of results in PMC6882465, “Towards discovery of new leishmanicidal scaffolds able to inhibit Leishmania GSK-3” (Journal of Enzyme Inhibition and Medicinal Chemistry, 2019).

Assay [1] concerns peritoneal murine macrophages (PMM). As to the kind of experiment: Cytotoxicity on peritoneal murine macrophages (MTT). In kind it is cell-based, Balb/c mice. To be noted: 48 h.
Method: Peritoneal murine macrophages were obtained from 8-week-old Balb/c mice previously elicited by i.p. injection with 1 mL of 10% thioglycollate medium three days prior to extraction. Macrophages were obtained by peritoneal washing (10 mL PBS, 4 °C). After extraction, macrophages were maintained in RPMI 1640-HIFCS at 37 °C and 5% CO2.
For peritoneal macrophages, the cells were seeded in 96 microwell plates at 1 × 10^5 cells/well and incubated (37 °C, 5% CO2) with the drug for 48 h. The toxicity was evaluated by the inhibition of MTT reduction as above.
For assay [2], the system named is L. infantum promastigotes. The assay can be described thus: Leishmanicidal assay on promastigotes (inhibition of MTT reduction). Type of assay: cell-based, Leishmania infantum. To be noted: 72 h. On the procedure: (§1) Leishmania parasites were resuspended with the corresponding drug concentration at 2 × 10^6 parasites/mL (final concentration) in their respective growth media in 96 microwell plates (200 µL/well). The parasites were allowed to growth for 72 h at 26 °C for promastigotes and 96 h at 32 °C for axenic amastigotes. Afterwards, inhibition of proliferation was measured by the inhibition of MTT reduction by the parasites. […] MTT reduction was allowed to proceed for 2 h at the respective temperature, and the resulting formazan solubilised by addition of 50 µL/well of 10% SDS. Afterwards, the plate was read at 595 nm in a BioRad Microplate-reader, model 680. Samples were made by triplicate and assays were repeated at least twice.

For assay [3], the target named is T1, LdGSK-3 (Leishmania donovani, UniProt A6N857). The assay can be described thus: Inhibition of LdGSK-3 with Kinase Glo. In kind it is biochemical. To be noted: for LdGSK-3 % inhibition: @10 µM; for % inhibition @ 10µM (initial screening on LdGSK3): Table S2; for percentage of inhibition of LdGSK-3: assayed at 10 µM.
T1 sequence (A6N857 entry or part of it): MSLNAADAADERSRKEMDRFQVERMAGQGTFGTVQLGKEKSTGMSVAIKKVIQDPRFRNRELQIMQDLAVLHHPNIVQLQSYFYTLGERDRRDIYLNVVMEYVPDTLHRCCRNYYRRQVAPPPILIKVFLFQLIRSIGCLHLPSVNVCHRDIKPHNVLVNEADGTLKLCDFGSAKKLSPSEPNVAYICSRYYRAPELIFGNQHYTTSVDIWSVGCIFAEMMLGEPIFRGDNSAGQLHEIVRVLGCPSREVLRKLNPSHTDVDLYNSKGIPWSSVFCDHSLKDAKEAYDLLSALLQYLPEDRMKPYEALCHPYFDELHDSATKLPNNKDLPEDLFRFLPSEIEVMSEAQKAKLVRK
Method: Assessment of inhibition of LdGSK-3 with Kinase Glo^TM
The reaction was allowed to proceed for 30 min at 30 °C, then it was incubated at room temperature for another 10 min after addition of Kinase Glo reagents (Promega, Ref. V6712). ATP consumption by LdGSK-3 was measured indirectly through end-point luminescence measurement of each well in a Varioskan Flash microplate reader (Thermo).
Assay [4] concerns L. pifanoi axenic amastigotes. The assay can be described thus: Leishmanicidal assay on axenic amastigotes (inhibition of MTT reduction). In kind it is cell-based, Leishmania pifanoi. To be noted: 96 h, read-out: L. pifanoi amast. ax EC50. How it is done:
as §1

Assay [5] addresses T2, hGSK-3β (Homo sapiens, UniProt P49841). To be noted: Table S1, cited from earlier work.
Assay [6] concerns the target T2, hGSK-3β. The assay can be described thus: hGSK-3β inhibition. Type of assay: biochemical.
Assay [7] has as its target T1, LdGSK-3. The arrangement: method as in PMID 19445946. To be noted: cited from earlier work.
[8] abbreviates: Table S1, read-out: LdGSK-3 IC50.
Setting [9] is: Table 2, read-out: LdGSK-3 IC50.

Like-named read-outs stand apart in the source and are kept apart here.

T2 sequence (P49841 whole entry): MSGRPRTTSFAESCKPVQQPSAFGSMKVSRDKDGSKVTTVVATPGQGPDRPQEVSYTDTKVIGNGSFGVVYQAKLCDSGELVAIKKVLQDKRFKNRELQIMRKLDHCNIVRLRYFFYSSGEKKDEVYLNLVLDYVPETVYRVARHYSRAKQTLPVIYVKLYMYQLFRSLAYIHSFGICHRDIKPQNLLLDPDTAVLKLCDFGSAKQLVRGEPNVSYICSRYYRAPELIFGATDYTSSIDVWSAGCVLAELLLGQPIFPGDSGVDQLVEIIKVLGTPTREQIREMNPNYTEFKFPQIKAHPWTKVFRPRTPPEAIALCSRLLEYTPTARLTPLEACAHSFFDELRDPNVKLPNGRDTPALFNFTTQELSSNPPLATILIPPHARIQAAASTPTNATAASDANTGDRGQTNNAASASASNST

With `CC(=O)C1=C(c2c[nH]c3ccccc23)C(=O)NC1=O` [Compound 16], the results for the EC50 in assay [1] (Table S1), in assay [2] (Table S1) and in assay [4] (Table S1) were greater than 50 µM, greater than 50 µM and 2.5 ± 2.7 µM, respectively. In addition, the LdGSK-3 % inhibition in assay [3] (Table S1) was less than 20%. Besides, in assay [5] (ref 8 (supplement)), the IC50 was 4.47 ± 0.35 µM.
The compound `CCOC(=O)c1sc(NC(=O)CCc2cc(OC)c(OC)c(OC)c2)nc1C` [Compound 22] returned an IC50 in assay [6] (Table S1, reference not given) of 7.04 ± 0.27 µM. Moreover, the EC50 in assay [2] (Table S1) and in assay [4] (Table S1) was greater than 50 µM throughout. The compound also yielded a LdGSK-3 % inhibition in assay [3] (Table S1) of less than 20%.
With `O=C(CCl)c1ccc(Br)s1` [Compound 6], the half-maximal effective concentration (EC50) in assay [1] (Table S1) was 6.8 ± 0.4 µM; in assay [2] (Table S1), 0.9 ± 0.1 µM; in assay [4] (Table S1) it was 1.7 ± 0.1 µM. Further, the results for the IC50 in assay [3] (setting [8]) and in assay [5] (ref 4 (supplement)) were 12.5 ± 2.4 µM and 10 µM, respectively.
Turning to `CCCCCCCC(=O)NNC(=O)c1c(O)c2ccccc2n(C)c1=O` [Compound 12], the 50% effective concentration (EC50) in assay [2] (Table S1) is greater than 50 µM; in assay [4] (Table S1), 20.8 µM. The compound also displayed a LdGSK-3 % inhibition in assay [3] (Table S1) of less than 20%. Besides, the IC50 in assay [5] (ref 7 (supplement)) was 8.7 ± 0.4 µM.
`COc1ccc(CNC(=O)Nc2nc(C)c(C(=O)CBr)s2)cc1` [Compound 19]: the EC50 in assay [1] (Table S1) was 32 ± 3.1 µM; in assay [2] (Table S1) it was greater than 25 µM; in assay [4] (Table S1), 14.4 ± 2.6 µM. In assay [6] (Table S1, reference not given), the half-maximal inhibitory concentration (IC50) amounted to 9.72 ± 0.57 µM. For the same compound, the LdGSK-3 % inhibition in assay [3] (Table S1) was less than 20%.
As for `COc1ccc(CNC(=O)Nc2nc(C)c(C(=O)C(Br)Br)s2)cc1` [Compound 20], in assay [6] (Table S1, reference not given), the IC50 came out at 6.22 ± 0.2 µM. Further, the EC50 in assay [2] (Table S1) and in assay [4] (Table S1) was greater than 50 µM throughout. This compound also yielded a LdGSK-3 % inhibition in assay [3] (Table S1) of less than 20%.
The compound `CCOC(=O)c1sc(NC(=O)CCc2cccc(Cl)c2)nc1C` [Compound 21] gave an IC50 in assay [6] (Table S1, reference not given) of 7.23 ± 0.26 µM. The concentration for a half-maximal effect (EC50) in assay [2] (Table S1) and in assay [4] (Table S1) was greater than 50 µM throughout. In assay [3] (Table S1), this compound registered a LdGSK-3 % inhibition of less than 20%.
In the case of `O=C(CCl)c1cc(Cl)sc1Cl` [Compound 8], the EC50 in assay [1] (Table S1) was found to be 3.6 ± 0.5 µM; in assay [2] (Table S1) it was 4.4 ± 0.1 µM; in assay [4] (Table S1) it was 2.4 ± 0.4 µM. For the same compound, the 50% inhibitory concentration (IC50) in assay [3] (setting [8]) is 10.3 ± 2 µM; in assay [5] (ref 4 (supplement)), 5 µM.
With `O=c1sn(-c2cccc3ccccc23)c(=O)n1Cc1ccccc1` [Compound 2, tideglusib], the EC50 in assay [1] (Mus musculus, Macrophage, Table 1) was greater than 50 µM; in assay [2] (Leishmania infantum, Table 1), 17.6 ± 2.3 µM; in assay [4] (Leishmania pifanoi, Table 1) it was 7.1 ± 1.8 µM. In assay [3], this compound displayed an IC50 of 0.32 ± 0.05 µM.
The compound `CN(C)S(=O)(=O)c1ccc(-c2cnc(N)c(-c3nc4ccc(F)cc4[nH]3)c2)cc1` [Compound 71] had an IC50 in assay [6] (Table 2) of 1.23 ± 0.14 µM. Besides, in assay [3] (setting [9]), the half-inhibitory concentration (IC50) is 3.6 µM. In assay [3], the “% inhibition @ 10µM (initial screening on LdGSK3)” value (shortened to “% inhibition @ 10µM”) worked out at 74.63±1.76% and the “percentage of inhibition of LdGSK-3” value is recorded as “higher than 50%”.
Take `O=C(CCl)c1ccc(Cl)cc1` [Compound 7]: the 50% effective concentration (EC50) in assay [1] (Table S1) worked out at 7.3 ± 1 µM; in assay [2] (Table S1), 6.6 ± 0.5 µM; in assay [4] (Table S1), 0.5 ± 0.1 µM. Besides, the half-maximal inhibitory concentration (IC50) in assay [3] (setting [8]) stood at 7.5 ± 1.4 µM.
`N#Cc1cc(-c2ccnc(Nc3cccc(CN4CCOCC4)c3)n2)ccc1NCCN` [Compound 128] registered a 50% inhibitory concentration (IC50) in assay [6] (Table 2) of 1.32 ± 0.35 µM. Moreover, in assay [3] (setting [9]), the IC50 is 1.7 µM. In addition, in assay [3], the “% inhibition @ 10µM” value stood at 99.46±0.78% and the “percentage of inhibition of LdGSK-3” value is given as “higher than 50%”.
With `Cc1cc2c(cc1Br)NC(=O)C2=C1Nc2ccccc2C1=NO` [6-bromo-5-methylindirubin-3'-oxime], in assay [7], the “LdGSK-3 inhibition (in words)” value is “inhibited”.
For `COc1ccc(-n2cnc3cc(C(=O)CBr)ccc32)cc1` [Compound 17], the concentration for a half-maximal effect (EC50) in assay [1] (Table S1) is greater than 25 µM; in assay [2] (Table S1) it was 3.4 ± 0.5 µM; in assay [4] (Table S1), 4.5 ± 0.2 µM. In addition, the LdGSK-3 % inhibition in assay [3] (Table S1) came out at 35.5%. Besides, the half-inhibitory concentration (IC50) in assay [5] (ref 8 (supplement)) was 0.58 ± 0.07 µM.
On to `O=C(Cc1cccc(Cl)c1)Nc1nc2ccc(C(F)(F)F)cc2s1` [Compound 23], for which the half-inhibitory concentration (IC50) in assay [6] (Table S1, reference not given) turned out to be 9.75 ± 0.26 µM. For the same compound, the EC50 in assay [2] (Table S1) and in assay [4] (Table S1) was greater than 50 µM in each case. In assay [3] (Table S1), this compound registered a LdGSK-3 % inhibition of less than 20%.
Regarding `COc1cccc(CC(=O)Nc2nc3ccc(OC)cc3s2)c1` [Compound 24], the IC50 in assay [6] (Table S1, reference not given) stood at 7.33 ± 0.15 µM. In addition, the EC50 in assay [2] (Table S1) and in assay [4] (Table S1) was greater than 50 µM each time. Besides, the LdGSK-3 % inhibition in assay [3] (Table S1) was less than 20%.
In the case of `O=C(CCl)c1cc(Br)c(Br)s1` [Compound 10], the 50% effective concentration (EC50) in assay [1] (Table S1) was determined as 7.9 ± 0.6 µM; in assay [2] (Table S1) it was 8.6 ± 0.3 µM; in assay [4] (Table S1), 1.2 ± 0.2 µM. For the same compound, the IC50 in assay [3] (setting [8]) came out at 3 ± 0.4 µM.
Turning to `CC(=O)Nc1ccc(-c2cnc(N)c(-c3nc4ccc(F)cc4[nH]3)c2)cc1` [Compound 187], the concentration for half-maximal inhibition (IC50) in assay [6] (Table 2) came to 1.22 ± 0.43 µM. Besides, the half-maximal inhibitory concentration (IC50) in assay [3] (setting [9]) is 9.1 µM. Moreover, in assay [3], the “% inhibition @ 10µM” value came to 67.81±1.17% and the “percentage of inhibition of LdGSK-3” value was “higher than 50%”.
In the same order, the values of `CN(C)Cc1cccc(Nc2nccc(-c3ccc(NCCN)c(C#N)c3)n2)c1` [Compound 119] are 0.24 ± 0.04 µM, 0.27 µM, 100.29±1.24% and “higher than 50%”.
In the case of `O=C(CBr)C1=C(c2c[nH]c3ccccc23)C(=O)NC1=O` [Compound 15], the EC50 in assay [2] (Table S1) and in assay [4] (Table S1) was greater than 50 µM in each case. The figures for the IC50 in assay [3] (setting [8]) and in assay [5] (ref 8 (supplement)) were 17.7 ± 2.7 µM and 0.047 ± 0.007 µM, respectively.
